# Target: T1, STK22D (TSSK1) (Homo sapiens, UniProt Q9BXA7)
# T1 construct: purchased Thermo Fisher Scientific (Life Technologies) SelectScreen
# Experiment: SelectScreen Z'LYTE
# Format: biochemical
# Method in brief: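 NU5455 was profiled across the SelectScreen Broad panel of kinase activity and binding assays. Z'LYTE reactions such as CSF1R ran at apparent Km ATP, while the Adapta CAMK1 assay used ATP listed as 10. Values are given as percent.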
# T1 sequence (Q9BXA7 whole entry): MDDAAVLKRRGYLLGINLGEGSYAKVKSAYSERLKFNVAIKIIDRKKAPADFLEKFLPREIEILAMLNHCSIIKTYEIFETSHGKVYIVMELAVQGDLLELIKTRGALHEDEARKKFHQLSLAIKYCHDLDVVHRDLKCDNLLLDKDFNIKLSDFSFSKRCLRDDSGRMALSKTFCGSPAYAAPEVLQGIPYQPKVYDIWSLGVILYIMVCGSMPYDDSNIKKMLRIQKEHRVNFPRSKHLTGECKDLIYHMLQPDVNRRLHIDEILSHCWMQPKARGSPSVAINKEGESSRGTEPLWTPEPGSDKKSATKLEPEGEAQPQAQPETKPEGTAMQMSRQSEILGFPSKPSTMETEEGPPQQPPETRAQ
smiles,measurement,value
CN(C(=O)CN1CCOCC1)c1ccc2sc3c(-c4cccc5c(=O)cc(N6CC7CCC(C6)O7)oc45)cccc3c2c1 [NU5455],inhibition at 1 µM,4.2%
